Values quoted from earlier work in US20090062244A1, “PHARMACEUTICAL COMPOSITION” (priority 2007, published 2009).

Conditions: room temperature

## O=C(OOC(=O)c1ccccc1)c1ccccc1 [benzoyl peroxide]
  Solubility in 95% alcohol compared with absolute alcohol: several times lower
